From patent US8399520B2, “Selective estrogen receptor modulator” (Eisai R&D Management Co., Ltd., priority 2002, dated 2013)

The compounds below were run against T1, estrogen receptor derived from bovine uterus (Bos taurus, UniProt P49884) (assay: In vitro estrogen receptor binding assay). Details: read-out: Estrogen receptor binding affinity: Ki.
T1 construct: estrogen receptor derived from bovine uterus was diluted with the assay buffer solution so that 10 to 20 μg total protein was present; from tissue; host or cells: bovine uterus
T1 sequence (P49884 1-596): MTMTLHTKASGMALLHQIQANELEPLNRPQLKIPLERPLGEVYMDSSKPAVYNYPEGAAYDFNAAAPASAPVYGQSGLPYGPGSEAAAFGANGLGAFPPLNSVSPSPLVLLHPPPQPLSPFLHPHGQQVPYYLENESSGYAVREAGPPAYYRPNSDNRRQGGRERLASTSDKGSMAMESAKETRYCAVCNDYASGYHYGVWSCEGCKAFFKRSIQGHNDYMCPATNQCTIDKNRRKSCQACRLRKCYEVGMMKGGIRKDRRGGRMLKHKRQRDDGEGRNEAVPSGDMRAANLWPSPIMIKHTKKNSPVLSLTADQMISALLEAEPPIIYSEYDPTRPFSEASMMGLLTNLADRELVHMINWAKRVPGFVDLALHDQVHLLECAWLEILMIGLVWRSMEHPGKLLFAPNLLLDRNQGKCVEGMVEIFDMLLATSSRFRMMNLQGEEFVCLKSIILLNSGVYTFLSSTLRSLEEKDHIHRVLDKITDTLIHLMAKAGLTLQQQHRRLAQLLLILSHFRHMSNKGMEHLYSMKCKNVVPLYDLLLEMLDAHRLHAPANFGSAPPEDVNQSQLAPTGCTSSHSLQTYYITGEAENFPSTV
Procedure: The binding affinity of the compound according to the present invention to estrogen receptor was measured using an in vitro estrogen receptor binding assay. The binding affinity measures the ability of the compound according to the present invention to remove [^3H]-estradiol from estrogen receptor derived from bovine uterus. The following materials were used in this assay: (1) the assay buffer solution was 20 mM Tris/HCl (pH 7.5) containing 1 mM dithiothreitol (DTT), 1 mM EDTA and 10% glycerol; (2) radioactive ligand was [^3H]-estradiol purchased from Amersham Life Science; (3) the cold ligand was diethylstilbestrol purchased from sigma (Sigma); and (4) the estrogen receptor was derived from bovine uterus. The compound to be tested was prepared as a 10% DMSO solution. [^3H]-estradiol was dissolved in the assay buffer solution so as to obtain a final concentration of 1 nM. […] Each plate contains total binding, non-specific binding and the binding which were not inhibited by various concentrations of the compound. The plate was incubated for 1 hour at room temperature. […] These mixtures were centrifuged, and the supernatant thereof was evaluated for its radioactivity using a liquid scintillation counter. Specific binding was calculated by subtracting non-specific binding dpm (counts remaining in the supernatant obtained by centrifugal separation of a reaction mixture containing estrogen receptor derived from bovine uterus, radioactive ligand and excess cold ligand) from the total binding dpm (counts remaining in the supernatant obtained by centrifugal separation of a reaction mixture containing estrogen receptor derived from bovine uterus and radioactive ligand only). The effectiveness of the compound was evaluated by Ki. […] C is the concentration of [^3H]-estradiol in the reaction mixture, and Kd is the [^3H]-estradiol dissociation constant. The Kd was determined by Scatchard analysis. That is to say, various concentrations of [^3H]-estradiol were used to measure the concentration of specifically bound [^3H]-estradiol, which served as the horizontal axis, the value which was obtained by dividing the concentration of specifically bound [^3H]-estradiol by the concentration [^3H]-estradiol not bound to the receptor served as the vertical axis to produce a plot, and the negative value of the inverse of the slope of the resulting straight line was used as Kd.

Structure (SMILES) | Ki
CN(Cc1ccc(OCCN2CCCCC2)cc1)c1cc(O)ccc1CCc1ccc(O)cc1 [Example 343, 4-[2-(4-Hydroxyphenyl)ethyl]-3-{methyl-[4-(2-piperidin-1-ylethoxy)benzyl]amino}phenol] | 31 nM
ON=C1CCc2cc(-c3ccc(O)cc3Nc3ccc(OCCN4CCCCC4)cc3)ccc21 [Example 327, 5-{4-Hydroxy-2-[4-(2-piperidin-1-ylethoxy)phenylamino]phenyl}indan-1-one oxime] | 42 nM
O=C(c1ccc(OCCN2CCCCC2)cc1)c1cc(O)ccc1-c1ccc2cc(O)ccc2c1 [Example 8, [5-Hydroxy-2-(6-hydroxynaphthalen-2-yl)phenyl][4-(2-piperidin-1-yl-ethoxy)phenyl]methanone] | 0.64 nM
Oc1ccc2c(c1)CCN(c1cc(O)ccc1Cc1ccc(OCCN3CCCCC3)cc1)CC2 [Example 21, 3-{5-Hydroxy-2-[4-(2-piperidin-1-ylethoxy)benzyl]phenyl}-2,3,4,5-tetrahydro-1H-benz[d]azepin-7-ol] | 47 nM
CCN(Cc1ccc(OCCN2CCCCCC2)cc1)c1cc(O)ccc1C1CCN(c2cccc(O)c2)C1 (centres unmarked) [Example 329, 3-{[4-(2-Azepan-1-ylethoxy)benzyl]ethylamino}-4-[1-(3-hydroxyphenyl)pyrrolidin-3-yl]phenol] | 94 nM
CN(Cc1ccc(OCCN2CCCCC2)cc1)c1cc(O)ccc1-c1ccc2cc(O)ccc2c1 [Example 113, 6-{4-Hydroxy-2-{methyl[4-(2-piperidin-1-ylethoxy)benzyl]amino}phenyl}naphthalen-2-ol] | 1.6 nM
Oc1ccc(/C=C/c2ccc(O)cc2NCc2ccc(OCCN3CCCCC3)c(F)c2)cc1 [Example 349, 3-[3-Fluoro-4-(2-piperidin-1-ylethoxy)benzylamino]-4-[2-(4-hydroxyphenyl)vinyl]phenol] | 16 nM
O=c1cccc(C2=Cc3ccc(O)cc3CCC2)n1Cc1ccc(OCCN2CCCCCC2)cc1 [Example 15, 1-[4-(2-Azepan-1-ylethoxy)benzyl]-6-(2-hydroxy-8,9-dihydro-7H-benzocyclohepten-6-yl)-1H-pyridin-2-one] | 60 nM
CCN(Cc1ccc(OCCN2CCCCC2)c(F)c1)c1cc(O)ccc1-c1cc2ccc(O)cc2s1 [Example 322, 2-{2-{Ethyl[3-fluoro-4-(2-piperidin-1-ylethoxy)benzyl]amino}-4-hydroxyphenyl}benzo[b]thiophen-6-ol] | 3.1 nM
Oc1ccc(-c2nc3ccc(O)cc3s2)c(NCc2ccc(OCCN3CCCCC3)cc2)c1 [Example 319, 2-{4-Hydroxy-2-[4-(2-piperidin-1-ylethoxy)benzylamino]phenyl}benzothiazol-6-ol] | 1.6 nM
Oc1ccc2c(c1)CCC(c1ccc(O)cc1NCc1ccc(OCCN3CCCCC3)cc1)=C2 [Example 130, 6-{4-Hydroxy-2-[4-(2-piperidin-1-ylethoxy)benzylamino]phenyl}-7,8-dihydronaphthalen-2-ol] | 8.2 nM
CC1(C)c2ccc(O)cc2CCC1c1ccc(O)cc1Nc1ccc(OCCN2CCCCC2)c(F)c1 (centres unmarked) [Example 305, 6-{2-[3-Fluoro-4-(2-piperidin-1-ylethoxy)phenylamino]-4-hydroxyphenyl}-5,5-dimethyl-5,6,7,8-tetrahydronaphthalen-2-ol] | 8.6 nM

More lines, now with the values ahead:

Ki | Structure (SMILES)
32 nM | CCN(Cc1ccncc1)c1cc(O)ccc1C1CCc2cc(O)ccc2C1 (centres unmarked) [Example 54, 6-{2-[Ethyl(pyridin-4-ylmethyl)amino]-4-hydroxyphenyl}-5,6,7,8-tetrahydronaphthalen-2-ol]
1.2 nM | CCN(Cc1ccc(OCCN2CCCCC2)c(F)c1)c1cc(O)ccc1[C@@H]1CCc2cc(O)ccc2C1 [188 (R), (R)-6-{2-{ethyl-[3-fluoro-4-(2-piperidin-1-ylethoxy)benzyl]amino}-4-hydroxyphenyl}-5,6,7,8-tetrahydronaphthalen-2-ol]
9.8 nM | CCN(Cc1ccc(OCCN2CCCCC2)cc1)c1cc(O)ccc1CC1CCc2cc(O)ccc2C1 (centres unmarked) [Example 791, 6-{2-{Ethyl[4-(2-piperidin-1-ylethoxy)benzyl]amino}-4-hydroxybenzyl}-5,6,7,8-tetrahydronaphthalen-2-ol]
8.2 nM | CC(C)N(CCOc1ccc(CCc2cc(O)ccc2C2CCc3cc(O)ccc3C2)cc1)C(C)C (centres unmarked) [Example 357, 6-{2-{2-[4-(2-Diisopropylaminoethoxy)phenyl]ethyl}-4-hydroxyphenyl}-5,6,7,8-tetrahydronaphthalen-2-ol]
1.8 nM | CCN(Cc1ccc(OC2CC3CCC(C2)N3C)c(F)c1)c1cc(O)ccc1C1CCc2cc(O)ccc2C1 (centres unmarked) [Example 367, 6-{2-{Ethyl[3-fluoro-4-(8-methyl-8-azabicyclo[3.2.1]oct-3-yloxy)benzyl]amino}-4-hydroxyphenyl}-5,6,7,8-tetrahydronaphthalen-2-ol]
9 nM | Oc1ccc2c(c1)CCC(c1ccc(O)cc1N(Cc1ccc(OCCN3CCCCCC3)cc1)CC(F)(F)F)C2 (centres unmarked) [Example 179, 6-{2-{[4-(2-Azepan-1-ylethoxy)benzyl](2,2,2-trifluoroethyl)amino}-4-hydroxyphenyl}-5,6,7,8-tetrahydronaphthalen-2-ol]
8.4 nM | CCN(Cc1ccccc1)c1cc(O)ccc1C1CCc2cc(O)ccc2C1 (centres unmarked) [Example 45, 6-[2-(Benzylethylamino)-4-hydroxyphenyl]-5,6,7,8-tetrahydronaphthalen-2-ol]
84 nM | CCn1ccc2c(O)ccc(C3CCc4cc(O)ccc4C3)c21 (centres unmarked) [Example 55, 1-Ethyl-7-(6-hydroxy-1,2,3,4-tetrahydronaphthalen-2-yl)-1H-indol-4-ol]
1.1 nM | CCNCCOc1ccc(CN(CC)c2cc(O)ccc2C2CCc3cc(O)ccc3C2)cc1 (centres unmarked) [Example 379, 6-{2-{Ethyl[4-(2-ethylaminoethoxy)benzyl]amino}-4-hydroxyphenyl}-5,6,7,8-tetrahydronaphthalen-2-ol]
13 nM | CCN(Cc1ccc(OCCN2CCCCCC2)cc1)c1cc(O)ccc1C1CCCc2cc(O)ccc2C1 (centres unmarked) [Example 298, 6-{2-{[4-(2-Azepan-1-ylethoxy)benzyl]ethylamino}-4-hydroxyphenyl}-6,7,8,9-tetrahydro-5H-benzocyclohepten-2-ol]
13 nM | CN(CCc1ccc(O)cc1)c1cc(O)ccc1C1CCc2cc(O)ccc2C1 (centres unmarked) [Example 48, 6-{4-Hydroxy-2-{[2-(4-hydroxyphenyl)ethyl]methylamino}phenyl}-5,6,7,8-tetrahydronaphthalen-2-ol]
22 nM | Oc1ccc2c(c1)CCC(c1ccc(O)cc1N1Cc3ccc(OCCN4CCCCC4)cc3C1)C2 (centres unmarked) [Example 338, 6-{4-Hydroxy-2-[5-(2-piperidin-1-ylethoxy)-1,3-dihydroisoindol-2-yl]phenyl}-5,6,7,8-tetrahydronaphthalen-2-ol]
18 nM | COCCN(Cc1ccc(OCCN2CCCCC2)c(F)c1)c1cc(O)ccc1C1CCc2cc(O)ccc2C1 (centres unmarked) [Example 183, 6-{2-{[3-Fluoro-4-(2-piperidin-1-ylethoxy)benzyl](2-methoxyethyl)amino}-4-hydroxyphenyl}-5,6,7,8-tetrahydronaphthalen-2-ol]
21 nM | CCN(CC)c1cc(O)ccc1C1CCc2cc(O)ccc2C1 (centres unmarked) [Example 44, 6-(2-Diethylamino-4-hydroxyphenyl)-5,6,7,8-tetrahydronaphthalen-2-ol]
18 nM | OCCN(Cc1ccc(OCCN2CCCCCC2)cc1)c1cc(O)ccc1C1CCc2cc(O)ccc2C1 (centres unmarked) [Example 177, 6-{2-{[4-(2-Azepan-1-ylethoxy)benzyl](2-hydroxyethyl)amino}-4-hydroxyphenyl}-5,6,7,8-tetrahydronaphthalen-2-ol]
32 nM | CCN(Cc1ccc(OCCN2CCCCCC2)cc1)c1cccc(C)c1C1CCc2cc(O)ccc2C1 (centres unmarked) [Example 293, 6-{2-{[4-(2-Azepan-1-ylethoxy)benzyl]ethylamino}-6-methylphenyl}-5,6,7,8-tetrahydronaphthalen-2-ol]
5 nM | CCN1CCN(CCOc2ccc(CN(CC)c3cc(O)ccc3C3CCc4cc(O)ccc4C3)cc2)CC1 (centres unmarked) [Example 373, 6-{2-{Ethyl{4-[2-(4-ethylpiperazin-1-yl)ethoxy]benzyl}amino}-4-hydroxyphenyl}-5,6,7,8-tetrahydronaphthalen-2-ol]
